Non-standard residues stand in square brackets, D forms with d. Cit = NC(=O)NCCC[C@H](N)C(=O)O; Orn = NCCC[C@H](N)C(=O)O
Key:
[1] = tested on: murine E^k MHC class II allele; test: simultaneous assay, E^k allele (CH27 APC, TPc9.1 T hybridoma, THMCC82-103 or PGCC81-104); type: cell-based; details: for Times Baseline Response, Ek: Table 3, values reduced relative to E^d by a factor of 10
Description: (§1) Examples 1-4 (Tables 1-18) will be briefly considered in order to establish the concept of tolerance discussed above. These examples describe experimental results observed in the so-called “simultaneous” assay. In the simultaneous assay four principle components are cultured together for a 24 hour period. The components of this culture, which are added simultaneously, are: (a) an antigenic peptide characterized by the ability to bind specifically into the antigenic peptide binding groove of an MHC class II molecule, (b) mitomycin C-treated, MHC class II-positive antigen presenting cells (APC) bearing the MHC class II allele required for binding of the specific antigenic peptide, and presentation of the specific antigenic peptide to the antigenic peptide-specific T cell hybridoma, (c) an effector compound of the present invention, and (d) an MHC class II allele-restricted T cell hybridoma specific for the antigenic peptide and the MHC class II allele restricting its presentation. Following incubation of this primary culture, an aliquot of its supernatant is transferred into a second culture well for incubation with an interleukin-dependent lymphoblastoid cell line. The degree of stimulation of that second, indicator cell by the interleukins which had been released from the activated T cell hybridoma in the primary culture is measured by quantitating tritiated thymidine deoxyribose {[^3H]TdR} uptake into the DNA of the HT-2 indicator cells of that second culture.
(§2) In the “simultaneous assay” the four components of the assay are cultured together for a 24 h period. The components of this primary culture, added at the same time or simultaneously, are: (a) the antigenic peptide, (b) mitomycin C-treated, MHC class II-positive antigen presenting cells (APC) with the MHC class II allele required for binding of the specific antigenic peptide and its presentation to the antigenic peptide-specific T cell hybridoma, (c) an AE101 series effector peptide, and (d) MHC class II allele-restricted T cell hybridoma specific for the antigenic peptide and the MHC class II allele restricting its presentation. At the end of the incubation of this primary culture, an aliquot of its supernatant is transferred into a second culture well for incubation with an interleukin-dependent lymphoblastoid cell line. The degree of stimulation of that second, indicator cell by the interleukins which had been released from the activated T cell hybridoma in the primary culture is measured by quantitating tritiated thymidine deoxyribose {[^3H]TdR} uptake into the DNA of the HT-2 indicator cells of that second culture.
(§3) For these various assays, the following antigenic peptides were used: HEL11-25, hen egg lysozyme 11-25, AMKRHGLDNYRGYSL(A^d) (SEQ ID NO:5); HEL46-61, hen egg lysozyme 46-61, NTDGSTDYGILQINSR(Ak) (SEQ ID NO:6); HEL106-116, hen egg lysozyme 106-116, NAWVAWRNRCK (E^d) (SEQ ID NO:7); PGCC81-104, pigeon cytochrome c 81-104, […] (Ek) (SEQ ID NO:8), and THMCC82-103, tobacco hornworm moth cytochrome c 82-103, […] (Ek) (SEQ ID NO:9). AE101 series peptides were obtained from commercial sources. In general, the purity and composition of each peptide was confirmed by HPLC separation and mass spectrometry. The native protein antigens were HEL, hen egg lysozyme, and PGCC, pigeon cytochrome C. They were obtained from commercial sources.
(§4) For the experiments of these Examples, several T cell hybridomas, which are specific for certain antigenic peptides, were used. The TPc9.1 T hybridoma is specific for pigeon cytochrome C 81-104 peptide presented on the murine class II MHC allele E^k. The TPc9.1 hybridoma responds heteroclitically to tobacco hornworm moth cytochrome c 82-103 on E^k. The 3A9 T hybridoma is specific for hen egg lysozyme 46-61 on A^k. The 9.30.B2 hybridoma is specific for hen egg lysozyme 11-25 on A^d, and the G28.C9 hybridoma is specific for hen egg lysozyme 106-116 on E^d. […]

[2] = target: T1, murine E^d MHC class II allele (Mus musculus, UniProt P01904+P01915); test: simultaneous assay, E^d allele (A20 APC, G28.C9 T hybridoma, HEL106-116; HT-2 [3H]TdR readout); type: cell-based; set-up: The A20 and CH27 B cell lymphoma lines express H-2^d and H-2^k alleles, respectively; endogenous in cells; host or cells: A20 B cell lymphoma (mitomycin C-treated or paraformaldehyde-fixed); details: for Times Baseline Response, Ed: Table 3
T1 sequence (P01904 26-255): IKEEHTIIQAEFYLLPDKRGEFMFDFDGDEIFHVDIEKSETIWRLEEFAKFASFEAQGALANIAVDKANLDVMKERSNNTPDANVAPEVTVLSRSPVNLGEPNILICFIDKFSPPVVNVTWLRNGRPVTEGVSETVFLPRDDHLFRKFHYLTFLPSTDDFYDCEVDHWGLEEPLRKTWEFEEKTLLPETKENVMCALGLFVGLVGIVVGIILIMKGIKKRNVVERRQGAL
T1 sequence (P01915 27-264 limits assumed): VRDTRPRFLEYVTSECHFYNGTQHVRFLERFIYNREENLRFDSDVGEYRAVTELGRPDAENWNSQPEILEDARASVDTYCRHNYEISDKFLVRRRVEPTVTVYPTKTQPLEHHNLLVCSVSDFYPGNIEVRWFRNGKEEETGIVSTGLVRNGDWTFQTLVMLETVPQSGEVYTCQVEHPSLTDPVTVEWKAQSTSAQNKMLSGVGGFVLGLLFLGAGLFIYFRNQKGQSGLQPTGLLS
Description: as §1, §2, §3, §4

[3] = AE peptide 64 μM, supernatant 1:4
[4] = Table 5, AE peptide 64 μM, supernatant 1:4, normalized to E^d by a factor of 10
[5] = Table 5, AE peptide 64 μM, supernatant 1:4
[6] = Table 6, AE peptide 64 μM, supernatant 1:4, reduced by a factor of 5
[7] = Table 6, AE peptide 64 μM, supernatant 1:4
[8] = Table 9, AE peptide 64 μM, supernatant 1:4, normalized by a factor of 5
[9] = Table 9, AE peptide 64 μM, supernatant 1:4
[10] = Table 10, AE peptide 64 μM, supernatant 1:2 (first value)
[11] = Table 10, AE peptide 64 μM, supernatant 1:4 (second value)
[12] = Table 10, AE peptide 16 μM (second value), supernatant 1:2
[13] = Table 10, AE peptide 64 μM (first value), supernatant 1:2

Ac-D RMKLPK-NH2 [AE185]
Times Baseline Response, Ek [1, 3]: 0.9
Times Baseline Response, Ed [2, 3]: 1.2

Ac-E RMKLPK-NH2 [AE186]
Times Baseline Response, Ek [1, 3]: 1.3
Times Baseline Response, Ed [2, 3]: 2.5

Ac-F RMKLPK-NH2 [AE189]
Times Baseline Response, Ek [1, 3]: 18.2
Times Baseline Response, Ed [2, 3]: 12.1

Ac-H RMKLPK-NH2 [AE183]
Times Baseline Response, Ek [1, 3]: 17.3
Times Baseline Response, Ed [2, 3]: 10.3

Ac-HArg RMKLPK-NH2 [AE182]
Times Baseline Response, Ek [1, 3]: 26.5
Times Baseline Response, Ed [2, 3]: 18.8

Ac-K RMKLPK-NH2 [AE184]
Times Baseline Response, Ek [1, 3]: 11.8
Times Baseline Response, Ed [2, 3]: 14.1

Ac-LR D KLPK-NH2 [AE200]
Times Baseline Response, E^k [1, 4]: 3.9
Times Baseline Response, E^d [2, 5]: 8.3

Ac-LR E KLPK-NH2 [AE201]
Times Baseline Response, E^k [1, 4]: 3.4
Times Baseline Response, E^d [2, 5]: 7.0

Ac-LR F KLPK-NH2 [AE204]
Times Baseline Response, E^k [1, 4]: 31.8
Times Baseline Response, E^d [2, 5]: 14.0

Ac-LR H KLPK-NH2 [AE198]
Times Baseline Response, E^k [1, 4]: 18.7
Times Baseline Response, E^d [2, 5]: 16.1

Ac-LR K KLPK-NH2 [AE199]
Times Baseline Response, E^k [1, 4]: 22.9
Times Baseline Response, E^d [2, 5]: 12.1

Ac-LR Q KLPK-NH2 [AE203]
Times Baseline Response, E^k [1, 4]: 20.5
Times Baseline Response, E^d [2, 5]: 14.1

Ac-LR Y KLPK-NH2 [AE205]
Times Baseline Response, E^k [1, 4]: 27.4
Times Baseline Response, E^d [2, 5]: 13.9

Ac-LRM D LPK-NH2 [AE214]
Times Baseline Response, E^k [1, 6]: 0.4
Times Baseline Response, E^d [2, 7]: 0.8

Ac-LRM E LPK-NH2 [AE215]
Times Baseline Response, E^k [1, 6]: 0.4
Times Baseline Response, E^d [2, 7]: 0.7

Ac-LRM F LPK-NH2 [AE218]
Times Baseline Response, E^k [1, 6]: 9.0
Times Baseline Response, E^d [2, 7]: 3.1

Ac-LRM H LPK-NH2 [AE213]
Times Baseline Response, E^k [1, 6]: 5.7
Times Baseline Response, E^d [2, 7]: 6.1

Ac-LRM HArg LPK-NH2 [AE212]
Times Baseline Response, E^k [1, 6]: 15.4
Times Baseline Response, E^d [2, 7]: 13.2

Ac-LRM N LPK-NH2 [AE216]
Times Baseline Response, E^k [1, 6]: 3.3
Times Baseline Response, E^d [2, 7]: 2.4

Ac-LRM Q LPK-NH2 [AE217]
Times Baseline Response, E^k [1, 6]: 4.4
Times Baseline Response, E^d [2, 7]: 4.0

Ac-LRM Y LPK-NH2 [AE219]
Times Baseline Response, E^k [1, 6]: 8.8
Times Baseline Response, E^d [2, 7]: 7.1

Ac-LRMKLP D-NH2 [AE244]
Times Baseline Response, E^k [1, 8]: 2.7
Times Baseline Response, E^d [2, 9]: 0.9

Ac-LRMKLP E-NH2 [AE245]
Times Baseline Response, E^k [1, 8]: 2.8
Times Baseline Response, E^d [2, 9]: 0.9

Ac-LRMKLP H-NH2 [AE243]
Times Baseline Response, E^k [1, 8]: 14.5
Times Baseline Response, E^d [2, 9]: 7.2

Ac-LRMKLP HArg-NH2 [AE242]
Times Baseline Response, E^k [1, 8]: 17.6
Times Baseline Response, E^d [2, 9]: 8.0

Ac-LRMKLP L-NH2 [AE251]
Times Baseline Response, E^k [1, 8]: 18.6
Times Baseline Response, E^d [2, 9]: 11.9

Ac-LRMKLP M-NH2 [AE250]
Times Baseline Response, E^k [1, 8]: 21.3
Times Baseline Response, E^d [2, 9]: 13.9

Ac-LRMKLP Q-NH2 [AE247]
Times Baseline Response, E^k [1, 8]: 10.9
Times Baseline Response, E^d [2, 9]: 4.5

Ac-LRMKLP Y-NH2 [AE249]
Times Baseline Response, E^k [1, 8]: 17.1
Times Baseline Response, E^d [2, 9]: 12.2

Ac-LRMKLP[Orn]-NH2 [AE240]
Times Baseline Response, E^k [1, 8]: 11.5
Times Baseline Response, E^d [2, 9]: 9.8

Ac-LRMKLpk-NH2 [AE173]
Times Baseline Response, E^k ([1]; Table 12, AE peptide 1 μM (fourth value), supernatant 1:4): 2.1
Times Baseline Response, E^k ([1]; Table 12, AE peptide 4 μM (third value), supernatant 1:4): 4.3
Times Baseline Response, E^k ([1]; Table 12, AE peptide 16 μM (second value), supernatant 1:4): 25.0
Times Baseline Response, E^k ([1]; Table 12, AE peptide 64 μM (first value), supernatant 1:4): 51.3
Times Baseline Response, E^d ([2]; Table 12, AE peptide 1 μM (fourth value), supernatant 1:2): 2
Times Baseline Response, E^d ([2]; Table 12, AE peptide 4 μM (third value), supernatant 1:2): 10
Times Baseline Response, E^d ([2]; Table 12, AE peptide 16 μM (second value), supernatant 1:2): 92
Times Baseline Response, E^d ([2]; Table 12, AE peptide 64 μM (first value), supernatant 1:2): 123

Ac-LRM[Cit]LPK-NH2 [AE211]
Times Baseline Response, E^k [1, 6]: 3.4
Times Baseline Response, E^d [2, 7]: 1.7

Ac-LRM[Orn]LPK-NH2 [AE210]
Times Baseline Response, E^k [1, 6]: 9.0
Times Baseline Response, E^d [2, 7]: 6.6

Ac-LR[Cit]KLPK-NH2 [AE196]
Times Baseline Response, E^k [1, 4]: 18.4
Times Baseline Response, E^d [2, 5]: 13.6

Ac-M RMKLPK-NH2 [AE190]
Times Baseline Response, Ek [1, 3]: 15.2
Times Baseline Response, Ed [2, 3]: 9.8

Ac-N RMKLPK-NH2 [AE187]
Times Baseline Response, Ek [1, 3]: 9.5
Times Baseline Response, Ed [2, 3]: 6.3

Ac-Q RMKLPK-NH2 [AE188]
Times Baseline Response, Ek [1, 3]: 7.7
Times Baseline Response, Ed [2, 3]: 8.8

Ac-YRAKLPKSAK-NH2 [AE122]
Times Baseline Response, E^k [1, 10]: 46.2
Times Baseline Response, E^k [1, 11]: 41.4
Times Baseline Response, E^d [2, 12]: 9.2
Times Baseline Response, E^d [2, 13]: 16.2

Ac-YRMALPKSAK-NH2 [AE123]
Times Baseline Response, E^k [1, 10]: 65.0
Times Baseline Response, E^k [1, 11]: 51.1
Times Baseline Response, E^d [2, 12]: 10.7
Times Baseline Response, E^d [2, 13]: 24.0

Ac-YRMKAPKSAK-NH2 [AE124]
Times Baseline Response, E^k [1, 10]: 66.0
Times Baseline Response, E^k [1, 11]: 65.9
Times Baseline Response, E^d [2, 12]: 7.3
Times Baseline Response, E^d [2, 13]: 12.5

Ac-YRMKLAKSAK-NH2 [AE125]
Times Baseline Response, E^k [1, 10]: 38.7
Times Baseline Response, E^k [1, 11]: 32.8
Times Baseline Response, E^d [2, 12]: 1.7
Times Baseline Response, E^d [2, 13]: 2.0

Ac-YRMKLPASAK-NH2 [AE126]
Times Baseline Response, E^k [1, 10]: 53.4
Times Baseline Response, E^k [1, 11]: 56.4
Times Baseline Response, E^d [2, 12]: 6.8
Times Baseline Response, E^d [2, 13]: 18.2

Ac-YRMKLPKAAK-NH2 [AE127]
Times Baseline Response, E^k [1, 10]: 63.6
Times Baseline Response, E^k [1, 11]: 63.4
Times Baseline Response, E^d [2, 12]: 12.4
Times Baseline Response, E^d [2, 13]: 19.1
